# Experimental data: patent publication EP4741395A1, “NOVEL COMPOUND SENSITIVE TO NITROGEN MONOXIDE AND PHARMACEUTICAL COMPOSITION COMPRISING SAME” (Omniamed Co. Ltd, priority 2023, dated 2025)
# Experiments:
# [1] = test system: splenocytes; test: Inhibitory activity on cell proliferation in splenocytes (CCK-8 analysis); type: cell-based, C57BL/6 mouse; settings: Mus musculus, Splenocyte, Concanavalin A 5 µg/mL, 72 hours, read-out: Inhibitory Activity on Cell Proliferation (%) (Mean±SD)
# [2] = DAF-2 assay of NO scavenging activity without and with H2O2 (ROS); type: biochemical; settings: SNAP 100 µM, DAF-2 10 µM, 3 hours, 37°C; for NO Scavenging Activity (%) (Mean±SD) With H2O2: H2O2 1 mM
# Method: The pharmaceutical composition sensitive to nitrogen monoxide including the compound according to each of Examples 23 to 28 and 32 may have scavenging activity for reactive oxygen species (ROS). NO scavenging activity of the pharmaceutical composition was evaluated through a DAF-2 assay.
# Specifically, to a 100 µM solution of SNAP, the compound synthesized in each of the Examples was added at a concentration of the following Table 2, and reacted. Then 10 µM of DAF-2 was added thereto, followed by a reaction for 3 hours in a 37°C incubator.
# Additionally, a stock solution of H2O2 (10 M) was added to the reaction solution so that SNAP and H2O2 had final concentrations of 100 µM and 1 mM, respectively. Then, the compound synthesized in each of the Examples was added thereto at a concentration of the following Table 11, followed by a reaction in the same manner, and NO scavenging activity was calculated by Equation 1.
# [3] = test system: Raw 264.7 cell line; test: NO scavenging activity in LPS-treated immune cells (Griess reagent); type: cell-based; settings: Mus musculus, RAW264.7, Raw 264.7, LPS 500 ng/mL, 24 hours, read-out: NO Scavenging Activity (%) (Mean±SD)
# Method: Raw 264.7 cell line was seeded in a 48-well plate at a density of 8×10^4 cells/well, and cultured at 37°C in a DMEM medium including 10% FBS, 100 U/mL of penicillin and 100 µg/mL of streptomycin.
# The medium was cultured overnight, and then replaced with a fresh medium including 10 µM of the pharmaceutical composition sensitive to nitrogen monoxide including the compound of each of Examples 1 to 30 and 500 ng/mL of LPS, and the fresh medium was cultured again for another 24 hours.
# Lastly, in order to measure the amount of NO produced, the amount of NO2^- present in the cell culture medium was measured using a Griess reagent (sulfanilamide, N-1-naphthylethylenediamine dihydrochloride). Specifically, 100 µL of a Griess reagent was mixed with a mixture solution of 50 µL of the cell culture medium and 50 µL of PBS. The mixture solution was reacted for 10 minutes in a well plate, and absorbance thereof at 540 nm was measured.
# [4] = test system: IFN-γ; test: IFN-γ reduction activity in Concanavalin A-treated splenocytes (quantitative ELISA); type: cell-based, C57BL/6 mouse; settings: Mus musculus, Splenocyte, Concanavalin A 5 µg/mL, 72 hours, read-out: IFN-γ Reduction Activity (%) (Mean±SD)
# Method: (§1) A spleen was isolated from an 8-week-old C57BL/6 mouse, and splenocytes were isolated using a physical method.
# (§2) The separated splenocytes were diluted to a concentration of 5×10^6 cells/mL in a RPMI 1640 medium including 10% FBS, 100 U/mL of penicillin and 100 µg/mL of streptomycin, and the diluted splenocytes were dispensed at 500 µL/well into a 48-well plate and 100 µL/well into a 96-well plate, and cultured for 72 hours in an incubator. The splenocytes were treated with Concanavalin A (5 µg/mL) when dispensed to induce an immune response, and herein, […] of the pharmaceutical composition including the compound according to each of the Examples was also added thereto. After 72 hours, the supernatant was collected, and the level of remaining NO was checked through a Griess assay, and calculated by the following Equation 4.
# NO is one of important inflammatory mediators, and may increase the level of inflammatory cytokine. Concanavalin A (5 µg/mL), which induces an immune response in splenocytes, and the compound of each of Examples were treated in a concentration-dependent manner to check whether the level of IFN-γ, a representative inflammatory cytokine, was reduced. The supernatant was collected 72 hours after the treatment, and analyzed using a quantitative enzyme-linked immunosorbent assay (Quantitative-ELISA).
# [5] = test system: splenocytes; test: NO scavenging activity in Concanavalin A-treated splenocytes (Griess assay); type: cell-based, C57BL/6 mouse; settings: Mus musculus, Splenocyte, Concanavalin A 5 µg/mL, 72 hours, read-out: NO Scavenging Activity (%) (Mean±SD)
# Method: as §1, §2
# [6] = DAF-2 assay of NO scavenging activity (NO donor SNAP); type: biochemical; settings: DAF-2 10 µM, SNAP 100 µM, PBS, 3 hours, 37°C
# Method: NO scavenging activity of the pharmaceutical composition sensitive to nitrogen monoxide including the compound according to each of Examples 1 to 22, 29 to 31, and 33 to 35 was evaluated through a DAF-2 assay.
# Specifically, a reagent stock solution was made using DMSO (dimethyl sulfoxide) in order to prepare 5 mM of DAF-2, 100 mM of SNAP and 5 mM of the compound synthesized in each of the Examples, and for the reaction, the solution was added to a PBS (phosphate buffered saline) solution so that DAF-2, SNAP and the compound had final concentrations of 10 µM, 100 µM and the concentration of Table 1, respectively, followed by a reaction for 3 hours in a 37°C incubator.
# [7] = target: JAK 1 (Homo sapiens, UniProt P23458); test: JAK Human TK kinase enzymatic radiometric assay (Eurofins), JAK 1; settings: value close to 100 indicates low JAK activity of the compound
# JAK 1, sequence (P23458 whole entry): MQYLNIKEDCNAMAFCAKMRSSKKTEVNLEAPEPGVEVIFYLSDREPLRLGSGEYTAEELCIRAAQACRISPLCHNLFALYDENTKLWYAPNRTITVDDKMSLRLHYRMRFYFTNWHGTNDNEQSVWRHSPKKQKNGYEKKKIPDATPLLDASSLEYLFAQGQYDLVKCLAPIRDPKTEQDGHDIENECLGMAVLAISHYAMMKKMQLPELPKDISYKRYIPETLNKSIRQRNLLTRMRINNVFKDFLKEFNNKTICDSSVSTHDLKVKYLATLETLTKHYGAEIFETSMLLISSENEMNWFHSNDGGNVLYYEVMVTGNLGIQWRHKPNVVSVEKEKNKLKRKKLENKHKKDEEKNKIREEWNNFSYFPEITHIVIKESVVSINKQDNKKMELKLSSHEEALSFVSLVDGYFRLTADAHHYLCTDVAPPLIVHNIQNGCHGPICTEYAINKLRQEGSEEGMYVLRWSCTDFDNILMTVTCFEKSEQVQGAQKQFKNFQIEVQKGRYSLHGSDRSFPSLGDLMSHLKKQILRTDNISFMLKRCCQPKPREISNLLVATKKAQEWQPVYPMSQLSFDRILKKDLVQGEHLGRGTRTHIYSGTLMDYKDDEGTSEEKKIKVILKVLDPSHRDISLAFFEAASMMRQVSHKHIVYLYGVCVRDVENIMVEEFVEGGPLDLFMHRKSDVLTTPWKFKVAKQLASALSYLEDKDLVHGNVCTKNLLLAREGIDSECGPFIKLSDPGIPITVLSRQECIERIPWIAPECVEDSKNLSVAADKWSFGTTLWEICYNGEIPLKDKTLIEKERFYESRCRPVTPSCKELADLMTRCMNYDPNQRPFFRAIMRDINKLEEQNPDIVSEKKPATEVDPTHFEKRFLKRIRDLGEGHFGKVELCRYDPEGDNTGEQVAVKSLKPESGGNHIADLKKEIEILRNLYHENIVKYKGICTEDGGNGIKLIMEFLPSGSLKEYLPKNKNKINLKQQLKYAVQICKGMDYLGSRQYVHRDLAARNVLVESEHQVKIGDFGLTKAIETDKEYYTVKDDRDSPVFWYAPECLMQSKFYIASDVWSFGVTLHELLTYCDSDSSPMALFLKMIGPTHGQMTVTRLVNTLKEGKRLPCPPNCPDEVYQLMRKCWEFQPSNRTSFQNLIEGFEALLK
# Excerpt: For the compounds of the Examples, JAK activity of each of the compounds was verified using the JAK Human TK Kinase Enzymatic Radiometric Kinase Profiler Assay service provided by Eurofins Scientific.
# The activity was verified after inducing a reaction at the JAK 1, 2 and 3 active sites using radioactively labeled ATP.
SMILES,inhibition at 10 µM [1] [%],NO Scavenging Activity (%) (Mean±SD) Without H2O2 ([2]; compound 10 µM),NO Scavenging Activity (%) (Mean±SD) With H2O2 ([2]; compound 10 µM),activity at 10 µM [3] [%],activity at 10 µM [4] [%],activity at 10 µM [5] [%],NO Scavenging Activity (%) (Mean±SD) Without H2O2 ([2]; compound 1 µM),NO Scavenging Activity (%) (Mean±SD) With H2O2 ([2]; compound 1 µM),NO Scavenging Activity (%) (Mean±SD) Without H2O2 ([2]; compound 5 µM),NO Scavenging Activity (%) (Mean±SD) With H2O2 ([2]; compound 5 µM),NO Scavenging Activity (%) (Mean±SD) ([6]; compound 1 µM),NO Scavenging Activity (%) (Mean±SD) ([6]; compound 5 µM),NO Scavenging Activity (%) (Mean±SD) ([6]; compound 10 µM),JAK 1 Activity ([7]; 0.1 nM),JAK 1 Activity ([7]; 1 nM),JAK 1 Activity ([7]; 10 nM),JAK 1 Activity ([7]; 100 nM)
"Cc1ccc(NC(=O)OCc2ccc(B3OC(C)(C)C(C)(C)O3)cc2)c(NC(=O)n2ccc3c(N(C)[C@H]4CN(C(=O)CC#N)CC[C@H]4C)ncnc32)c1 [Example 26, 4-(4,4,5,5-tetramethyl-1,3,2-dioxaborolan-2-yl)benzyl (2-(4-(((3R,4R)-1-(2-cyanoacetyl)-4-methylpiperidin-3-yl) (methyl)amino)-7H-pyrrolo[2,3-d]pyrimidine-7-carboxamido)-4-methylphenyl)carbamate]",75.6 ± 0.96,42.98 ±2.51,92.96 ±0.04,73.7 ± 0.33,97.4 ± 0.1,100,–,–,–,–,–,–,–,–,–,–,–
"C[C@@H]1CCN(C(=O)CC#N)C[C@@H]1N(C)c1ncnc2c1ccn2C(=O)Nc1cc2c(cc1NC(=O)OCc1ccc(B3OC(C)(C)C(C)(C)O3)cc1)n(C)c(=O)n2C [Example 28, 4-(4,4,5,5-tetramethyl-1,3,2-dioxaborolan-2-yl)benzyl (6-(4-(((3R,4R)-1-(2-cyanoacetyl)-4-methylpiperidin-3-yl) (methyl)amino)-7H-pyrrolo[2,3-d]pyrimidine-7-carboxamido)-1,3-dimethyl-2-oxo-2,3-dihydro-1H-benzo[d]imidazol-5-yl)carbamate]",80.7 ± 7.12,14.18 ±0.62,98.34 ±0.05,49.8 ± 0.43,100,92 ± 0.56,3.73± 0.57,76.23 ±0.94,13.25 ±0.69,98.01 ±0.04,–,–,–,–,–,–,–
"C[C@@H]1CCN(C(=O)CC#N)C[C@@H]1N(C)c1ncnc2c1ccn2C(=O)Nc1cc2c(cc1N)n(C)c(=O)n2C [Example 10, N-(6-amino-1,3-dimethyl-2-oxo-2,3-dihydro-1H-benzo[d]imidazol-5-yl)-4-(((3R,4R)-1-(2-cyanoacetyl)-4-methylpiperidin-3-yl)(methyl)amino)-7H-pyrrolo[2,3-d]pyrimidine-7-carboxamide]",76.3 ± 2.45,–,–,93.7 ± 0.11,93 ± 2.99,77 ± 0.87,–,–,–,–,–,–,–,–,–,–,–
"C[C@@H]1CCN(C(=O)CC#N)C[C@@H]1N(C)c1ncnc2c1ccn2C(=O)N(C)CCN(C)C(=O)Nc1cc2c(cc1N)n(C)c(=O)n2C [Example 22, N-(2-(3-(6-amino-1,3-dimethyl-2-oxo-2,3-dihydro-1H-benzo[d]imidazol-5-yl)-1-methylureido)ethyl)-4-(((3R,4R)-1-(2-cyanoacetyl)-4-methylpiperidin-3-yl) (methyl)amino)-N-methyl-7H-pyrrolo[2,3-d]pyrimidine-7-carboxamide]",19.4 ± 0.21,–,–,31.3 ± 0.88,–,45.9 ± 0.51,–,–,–,–,14.83 ±6.51,36.86 ±2.09,48.96 ±3.12,91,97,84,77
"Cc1ccc(NC(=O)n2ccc3c(N(C)[C@H]4CN(C(=O)CC#N)CC[C@H]4C)ncnc32)c(N)c1 [Example 3, N-(2-amino-4-methylphenyl)-4-(((3R,4R)-1-(2-cyanoacetyl)-4-methylpiperidin-3-yl)(methyl)amino)-7H-pyrrolo[2,3-d]pyrimidine-7-carboxamide]",76.2 ± 2.45,–,–,95.4 ± 0.11,99.1 ± 0.61,98.1 ± 0.34,–,–,–,–,–,–,–,–,–,–,–
"Cc1ccc(N)c(NC(=O)n2ccc3c(N(C)[C@H]4CN(C(=O)CC#N)CC[C@H]4C)ncnc32)c1 [Example 2, N-(2-amino-5-methylphenyl)-4-(((3R,4R)-1-(2-cyanoacetyl)-4-methylpiperidin-3-yl)(methyl)amino)-7H-pyrrolo[2,3-d]pyrimidine-7-carboxamide]",90.4 ± 4.69,–,–,78.1 ± 0.21,95.2 ± 0.39,94.3 ± 0.27,–,–,–,–,–,–,–,–,–,–,–
"Cc1ccc(NC(=O)N(C)CCN(C)C(=O)n2ccc3c(N(C)[C@H]4CN(C(=O)CC#N)CC[C@H]4C)ncnc32)c(N)c1 [Example 15, N-(2-(3-(2-amino-4-methylphenyl)-1-methylureido)ethyl)-4-(((3R,4R)-1-(2-cyanoacetyl)-4-methylpiperidin-3-yl) (methyl)amino)-N-methyl-7H-pyrrolo[2,3-d]pyrimidine-7-carboxamide]",22.6 ± 6.36,–,–,54 ± 0.59,86.5 ± 0.29,31.6 ± 0.16,–,–,–,–,–,–,–,102,90,99,66
"Cc1ccc(N)c(NC(=O)N(C)CCN(C)C(=O)n2ccc3c(N(C)[C@H]4CN(C(=O)CC#N)CC[C@H]4C)ncnc32)c1 [Example 16, N-(2-(3-(2-amino-5-methylphenyl)-1-methylureido)ethyl)-4-(((3R,4R)-1-(2-cyanoacetyl)-4-methylpiperidin-3-yl) (methyl)amino)-N-methyl-7H-pyrrolo[2,3-d]pyrimidine-7-carboxamide]",25 ± 5.67,–,–,49.3 ± 0.23,81.4 ± 0.5,27.1 ± 1.2,–,–,–,–,–,–,–,101,104,98,59
"C[C@@H]1CCN(C(=O)CC#N)C[C@@H]1N(C)c1ncnc2c1ccn2C(=O)Nc1cc(N(C)C)ccc1N [Example 5, N-(2-amino-5-(dimethylamino)phenyl)-4-(((3R,4R)-1-(2-cyanoacetyl)-4-methylpiperidin-3-yl)(methyl)amino)-7H-pyrrolo[2,3-d]pyrimidine-7-carboxamide]",60.5 ± 5.48,–,–,84.1 ± 0.01,96.1 ± 0.45,94.1 ± 0.52,–,–,–,–,–,–,–,–,–,–,–
